According to patent US20020177621A1, “Antifungal fragrance composition” (priority 2000, published 2002):
Values joined by “and” are separate entries in the source; they are usually repeats but may differ in a detail not shown here. Identical values can stand only once. “Also recorded” adds a separate entry of the source.

Legend:
Assay type in all cases: cell-based
An-1 (Aspergillus niger) = experiment: Confirmation of synergistic action of two fragrances (vapor, paper disc); conditions: for IZ (diameter of growth inhibition zone) / Growth (growth status outside the inhibition zone) / SI (diameter of spore formation inhibition zone): 72 hours at 27° C.; for IZ (diameter of growth inhibition zone): sample amount on disc: citral 2 μl, benzaldehyde 10 μl, dimethyl tetrahydrobenzaldehyde 20 μl, geraniol 10 μl, octyl aldehyde 20 μl, 9-decen-1-ol 0.5 μl, trans-2-undecenal 3 μl, phenylacetaldehyde 5 μl, A + B = both amounts on one disc; for Growth (growth status outside the inhibition zone): sample amounts as in Table 3 (citral 2 μl, benzaldehyde 10 μl, dimethyl tetrahydrobenzaldehyde 20 μl, geraniol 10 μl, octyl aldehyde 20 μl, 9-decen-1-ol 0.5 μl, trans-2-undecenal 3 μl, phenylacetaldehyde 5 μl; A + B = both); for SI (diameter of spore formation inhibition zone): sample amounts as in Table 3 (citral 2 μl, benzaldehyde 10 μl, dimethyl tetrahydrobenzaldehyde 20 μl, geraniol 10 μl, octyl aldehyde 20 μl, trans-2-undecenal 3 μl, phenylacetaldehyde 5 μl; A + B = both); for Synergistic effect: second fragrance that shows synergistic action with the fragrance component / Antagonistic effect: second fragrance that shows antagonistic action with the fragrance component / Additive effect: second fragrance that shows additive action with the fragrance component: value = combination partner; for Synergistic effect: second fragrance that shows synergistic action with the fragrance component: combined IZ 20 mm or more larger than sum of single IZ; for Antagonistic effect: second fragrance that shows antagonistic action with the fragrance component: combined IZ 20 mm or more smaller than sum of single IZ; for Additive effect: second fragrance that shows additive action with the fragrance component: combined IZ intermediate
Description: An agar plate prepared according to the method of Example 1 was used while using An-1 (Aspergillus niger) for the test fungi. […] 10 μl of the ethanol containing the Table 3 prescribed amount of the fragrance was impregnated into a paper disc. The test agar plate was placed inversely, and the paper disc impregnated with each fragrance alone and a paper disc simultaneously impregnated with two types of fragrances were placed in the center of the cover, followed by incubating for 72 hours at 27° C. and measuring the diameters of the resulting growth inhibition zones.
The results obtained as in Example 2 with other combinations are shown in Tables 4 through 7 as combination examples of respective synergistic, additive and antagonistic actions for each fragrant chemical product (a). […] It should be noted that in order to make the table smaller, combinations that have already been listed once are not listed in other columns of the tables.

[1] = system: Aspergillus niger IFO 9455 (An-1); experiment: Fragrant vapor antifungal activity (impregnated paper disc on cover of inverted agar plate); conditions: 72 hours at 27° C.; for IZ: Diameter of growth inhibition zone: 20 μl fragrance (or 40 μl of 50% ethanol solution) on disc, >85 = growth inhibited over entire plate; for Growth: Growth status outside the inhibition zone / SI: Diameter of spore formation inhibition zone: 20 μl fragrance on disc; for Growth: Growth status outside the inhibition zone: compared with control
Description: (§1) Physiological saline containing 0.05% Tween-80 was added to a slant on which the test organism grew well, and a spore suspension was produced at 1×10^6 CFU (Colony Forming Units)/ml in accordance with ordinary methods. Potato dextrose agar (PDA: Nissui Pharmaceutical) was used for the medium. To begin with, 10 ml of sterile PDA was pipetted into a Petri dish and after it solidified, another 6 ml of PDA containing 1% of the above described spore suspension was overlaid and solidified to prepare the test agar plate. For the fragrance sample, if the sample is in the form of liquid at ordinary temperatures, 20 μl of liquid was directly impregnated into a paper disc (Advantech, diameter: 8 mm, thick material), while a 50% by weight ethanol solution was prepared for crystals or powder, and 40 μl of that solution was then impregnated into the paper disc.
(§2) The test agar plate was placed inversely, and the paper disc impregnated with the fragrance sample was placed in the center of the cover of the agar plate, followed by incubating for 72 hours at 27° C. Evaluation was made based on the diameter (mm) of the mold growth inhibition zone. When mold growth was inhibited over the entire surface of the agar plate, the diameter of the growth inhibition zone was reported as >85 mm. At locations where mold grew outside the inhibition zone, the diameter of the spore formation inhibition zone and the degree of growth were recorded by comparing with a control. The molds used in the test are shown in Table 1, wherein these molds consist of mold species that are isolated at high frequencies from rooms and bath rooms.
(§3) The amount of blended fragrance added to the paper discs was 20 μl each, and only the diameter of the inhibition zone (mm) is indicated for the results.

[2] = system: Cladosporium cladosporioides IFO 6348 (Cc-1); experiment: as above; conditions: 72 hours at 27° C.; for IZ: Diameter of growth inhibition zone: 20 μl fragrance (or 40 μl of 50% ethanol solution) on disc, >85 = growth inhibited over entire plate; for Growth: Growth status outside the inhibition zone: 20 μl fragrance on disc, compared with control
Description: as §1, §2, §3

[3] = system: Aureobasidium pullulans IFO 6353 (Ap-1); experiment: as above; conditions: 72 hours at 27° C.; for IZ: Diameter of growth inhibition zone: 20 μl fragrance (or 40 μl of 50% ethanol solution) on disc, >85 = growth inhibited over entire plate; for Growth: Growth status outside the inhibition zone: compared with control
Description: as §1, §2, §3

## CCCCCCCC/C=C/C=O [Trans-2-undecenal]
An-1 (Aspergillus niger)
  IZ (diameter of growth inhibition zone): 30 mm
  Growth (growth status outside the inhibition zone): slight
  SI (diameter of spore formation inhibition zone): >85 mm
  Synergistic effect: second fragrance that shows synergistic action with the fragrance component: Citral DMA; also recorded: Citral DEA; also recorded: Cumin aldehyde; also recorded: Geraniol; also recorded: Citronellol
  Antagonistic effect: second fragrance that shows antagonistic action with the fragrance component: Eugenol
[1]
  IZ: Diameter of growth inhibition zone: >85 mm
  Growth: Growth status outside the inhibition zone: none
[2]
  IZ: Diameter of growth inhibition zone: >85 mm
  Growth: Growth status outside the inhibition zone: none
[3]
  IZ: Diameter of growth inhibition zone: >85 mm
[3]; 20 μl fragrance on disc
  Growth: Growth status outside the inhibition zone: none

## O=Cc1ccccc1O [Salicylic aldehyde]
An-1 (Aspergillus niger)
  Synergistic effect: second fragrance that shows synergistic action with the fragrance component: Cumin aldehyde and Thymol and 1-Decanol and Citronellol
[1]
  IZ: Diameter of growth inhibition zone: >85 mm
  Growth: Growth status outside the inhibition zone: none
[2]
  IZ: Diameter of growth inhibition zone: >85 mm
  Growth: Growth status outside the inhibition zone: none
[3]
  IZ: Diameter of growth inhibition zone: >85 mm
[3]; 20 μl fragrance on disc
  Growth: Growth status outside the inhibition zone: none

## CC(C)c1ccc(C=O)cc1 [Cumin aldehyde]
An-1 (Aspergillus niger)
  Synergistic effect: second fragrance that shows synergistic action with the fragrance component: Citral DEA; also recorded: Geraniol; also recorded: Cinnamic aldehyde DMA,; also recorded: Phenylacetaldehyde; also recorded: Decanol, Anisaldehyde,; also recorded: Citronellol
[1]
  IZ: Diameter of growth inhibition zone: >85 mm
  Growth: Growth status outside the inhibition zone: none
[2]
  IZ: Diameter of growth inhibition zone: >85 mm
  Growth: Growth status outside the inhibition zone: none
[3]
  IZ: Diameter of growth inhibition zone: >85 mm
[3]; 20 μl fragrance on disc
  Growth: Growth status outside the inhibition zone: none

## CCCCCCCCCCO [Example 1-Decanol, 1-Decanol]
An-1 (Aspergillus niger)
  Additive effect: second fragrance that shows additive action with the fragrance component: Thymol and 1-Nonanal and Methyl salicylate, and Phenylacetaldehyde, and Eugenol
[1]
  IZ: Diameter of growth inhibition zone: 80 mm
  Growth: Growth status outside the inhibition zone: weak
[2]
  IZ: Diameter of growth inhibition zone: 60 mm
  Growth: Growth status outside the inhibition zone: weak
[3]
  IZ: Diameter of growth inhibition zone: 40 mm
[3]; 20 μl fragrance on disc
  Growth: Growth status outside the inhibition zone: slight

## CC1=CC(C)C(C=O)CC1 (centres unmarked) [Dimethyl tetrahydrobenzaldehyde, dimethyl tetrahydrobenzaldehyde]
An-1 (Aspergillus niger)
  IZ (diameter of growth inhibition zone): 0 mm
  Growth (growth status outside the inhibition zone): weak
  SI (diameter of spore formation inhibition zone): >85 mm
  Synergistic effect: second fragrance that shows synergistic action with the fragrance component: Cumin aldehyde; also recorded: Geraniol
  Additive effect: second fragrance that shows additive action with the fragrance component: Thymol, and 1-Decanol
[1]
  IZ: Diameter of growth inhibition zone: 0 mm
  Growth: Growth status outside the inhibition zone: weak
[2]
  IZ: Diameter of growth inhibition zone: >85 mm
  Growth: Growth status outside the inhibition zone: sparse
[3]
  IZ: Diameter of growth inhibition zone: >85 mm
[3]; 20 μl fragrance on disc
  Growth: Growth status outside the inhibition zone: sparse

## CCC/C=C/C=O [Trans-2-hexenal]
An-1 (Aspergillus niger)
  Additive effect: second fragrance that shows additive action with the fragrance component: Citral DMA, and 1-Nonanal, and 9-Decen-1-ol
[1]
  IZ: Diameter of growth inhibition zone: >85 mm
  Growth: Growth status outside the inhibition zone: none
[2]
  IZ: Diameter of growth inhibition zone: >85 mm
  Growth: Growth status outside the inhibition zone: none
[3]
  IZ: Diameter of growth inhibition zone: >85 mm
[3]; 20 μl fragrance on disc
  Growth: Growth status outside the inhibition zone: none

## C=CCCCCCCCCO [Example 9-Decen-1-ol, 9-Decen-1-ol]
An-1 (Aspergillus niger)
  IZ (diameter of growth inhibition zone): 0 mm
  Growth (growth status outside the inhibition zone): weak
  Synergistic effect: second fragrance that shows synergistic action with the fragrance component: 1-Decanol
  Additive effect: second fragrance that shows additive action with the fragrance component: Thymol
[1]
  IZ: Diameter of growth inhibition zone: >85 mm
  Growth: Growth status outside the inhibition zone: none
[2]
  IZ: Diameter of growth inhibition zone: >85 mm
  Growth: Growth status outside the inhibition zone: none
[3]
  IZ: Diameter of growth inhibition zone: 65 mm
[3]; 20 μl fragrance on disc
  Growth: Growth status outside the inhibition zone: weak

## O=CCCc1ccccc1 [3-Phenylpropanal]
An-1 (Aspergillus niger)
  Synergistic effect: second fragrance that shows synergistic action with the fragrance component: Citral DMA; also recorded: Citral DEA; also recorded: Citronellal; also recorded: Salicylic aldehyde,
  Antagonistic effect: second fragrance that shows antagonistic action with the fragrance component: Geraniol
[1]
  IZ: Diameter of growth inhibition zone: >85 mm
  Growth: Growth status outside the inhibition zone: none
[2]
  IZ: Diameter of growth inhibition zone: >85 mm
  Growth: Growth status outside the inhibition zone: none
[3]
  IZ: Diameter of growth inhibition zone: >85 mm
[3]; 20 μl fragrance on disc
  Growth: Growth status outside the inhibition zone: none

## CCCCCCCC=O [Octyl aldehyde]
An-1 (Aspergillus niger)
  IZ (diameter of growth inhibition zone): 10 mm
  Growth (growth status outside the inhibition zone): weak
  SI (diameter of spore formation inhibition zone): 35 mm
  Synergistic effect: second fragrance that shows synergistic action with the fragrance component: Cumin aldehyde
  Antagonistic effect: second fragrance that shows antagonistic action with the fragrance component: Citronellol
  Additive effect: second fragrance that shows additive action with the fragrance component: 1-Decanol and Thymol, and Anisaldehyde, and Geraniol,
[1]
  IZ: Diameter of growth inhibition zone: 10 mm
  SI: Diameter of spore formation inhibition zone: >85 mm
  Growth: Growth status outside the inhibition zone: weak
[2]
  IZ: Diameter of growth inhibition zone: >85 mm
  Growth: Growth status outside the inhibition zone: none
[3]
  IZ: Diameter of growth inhibition zone: >85 mm
[3]; 20 μl fragrance on disc
  Growth: Growth status outside the inhibition zone: none

## C=CCCCCCCCCC=O [10-undecen-1-al]
An-1 (Aspergillus niger)
  Additive effect: second fragrance that shows additive action with the fragrance component: Furfural,; also recorded: Geraniol
[1]
  IZ: Diameter of growth inhibition zone: >85 mm
  Growth: Growth status outside the inhibition zone: none
[2]
  IZ: Diameter of growth inhibition zone: >85 mm
  Growth: Growth status outside the inhibition zone: sparse
[3]
  IZ: Diameter of growth inhibition zone: >85 mm
[3]; 20 μl fragrance on disc
  Growth: Growth status outside the inhibition zone: sparse

## C=CCc1ccc(O)c(OC)c1 [Eugenol]
An-1 (Aspergillus niger)
  Antagonistic effect: second fragrance that shows antagonistic action with the fragrance component: Phenylacetaldehyde,; also recorded: Anisaldehyde,
  Additive effect: second fragrance that shows additive action with the fragrance component: Thymol
[1]
  IZ: Diameter of growth inhibition zone: 40 mm
  SI: Diameter of spore formation inhibition zone: 60 mm
  Growth: Growth status outside the inhibition zone: good
[2]
  IZ: Diameter of growth inhibition zone: 70 mm
  Growth: Growth status outside the inhibition zone: weak
[3]
  IZ: Diameter of growth inhibition zone: 40 mm
[3]; 20 μl fragrance on disc
  SI: Diameter of spore formation inhibition zone: 60 mm
  Growth: Growth status outside the inhibition zone: good
